Assay results as given in US20260137696A1, “Compositions Comprising an Inhibitor of Galectin-3” (University of Liverpool, priority 2023, published 2026).

What was measured:
HUVECs = assay: Vascular cell tubule formation (angiogenesis); format: cell-based, human; conditions: different concentrations
Description: Vascular cell tubule formation was assessed with HUVECs in the absence or presence of different concentrations of the compounds of Formula I or Formula II.
Matrigel matrix (50 μl) was added to 96-well plates for 60 min at 37° C. to allow gel formation. HUVEC cells (1×10^5 cells/ml in 1:1 EGM/EBM2 media) was introduced to the plates without or with Galectin-3 (2 μg/ml) or different concentrations of compound inhibitors for 24 hr at 37° C. Endothelial cell tube formation was examined with Leica DMLA Laser Microscope. The total number of branching points and the sum of the lengths of tubes were calculated.

SW620 cells = assay: Tumour growth in mice (subcutaneous graft); format: in vivo, Balb/c nude mice; conditions: 5 mg/kg subcutaneously, 3 times a week for 4 weeks
Description: (§1) The compound of Formula I effect on tumour growth was assessed in Balb/c nude mice. Luciferase-transfected human colon cancer SW620 cells were grafted subcutaneously to mice and the compound of Formula I (5 mg/kg) was administrated subcutaneously, 3 times a week for 4 weeks. Tumour growths were monitored by IVIS imaging (FIG. 11A) and also measured by clipers.
as §1, with “imaging” for “imaging (FIG. 11A)”
(§2) Female Balb/c nude mice aged 6-7 weeks were purchased from Charles River Laboratories (Margate, UK) and maintained in specific pathogen-free conditions with a 12:12 hour light:dark cycle. All animal studies were conducted with UK Home Office and local ethics committee approval.
Sixteen 6˜7 weeks old mice were randomly divided into two equal A and B groups (8 mice/group). The animals were injected s.c. with 2×10^6 ZsGreen- and luciferase-expressing SW620Gal3+ cells. […] Tumour size were measured with callipers every two days. […]

[1] = tested on: Salmonella typhimurium strain TA100; assay: Ames test (genotoxicity); format: cell-based; conditions: TA100, up to 1 mM tested, with or without metabolic activation (S9)
Description: (§3) Mutagenic potential of the compound of Formula I was assessed by Ames test in two Salmonella typhimurium strains TA98 and TA100 without and with metabolic activation (S9).
(§4) Effect of the compound inhibitors on genotoxicity was determined using the Salmonella typhimurium strains of TA 98 and TA 100 in the presence and absence of metabolic activation (S9). Each test concentration included the vehicle and positive controls. Briefly, the compounds were serially diluted in 24-well plates with or without the presence metabolic activation system (S9) and was incubated for 90 min at 37° C. in 250 rpm in a orbital shaking incubator. TA98 and TA100 were then introduced to the wells for 90 min. 50 μL aliquots from each well was dispensed into 384 well plates and incubated for 48 hrs at 37° C. in an incubator before positive wells were scored.

[2] = tested on: Salmonella typhimurium strain TA98; assay: Ames test (genotoxicity); format: cell-based; conditions: TA98, up to 1 mM tested, with or without metabolic activation (S9)
Description: as §3, §4

SW620^Gal3− cells = assay: Tumour cell metastatic spread in mice (intravenous inoculation); format: in vivo, Balb/c nude mice; conditions: 10 mg/kg/day subcutaneously; Galectin-3-suppressed SW620^Gal3− cells
Description: (§5) The compound of Formula I effect on cancer metastasis was assessed in Balb/c nude mice. Luciferase-transfected, Galectin-3-expressing colon cancer SW620^Gal3+ and Galectin-3-suppressed SW620^Gal3− cells were inoculated to mice intravenously and the compound of Formula I was administrated subcutaneously, 10 mg/kg/day for 3 consecutive days in the first week and then once every week. Metastasis was monitored by IVIS imaging. […] The animals were sacrificed five weeks after tumour cell inoculation and the number of metastasis nodules on the surface of the animal lungs were quantified (FIG. 12B). Administration of the compound of Formula I caused 88% reduction of lung metastasis of Galectin-3-expressing SW620^Gal3+ cells but had little effect on Galectin-3-suppressed SW620^Gal3− cells;
as §5, with “for 5” for “for 3”, “first” for “first week and then once every”, “Galectin-3-suppressed SW620^Gal3 cells.” for “Galectin-3-suppressed SW620^Gal3− cells;”
as §2
(§6) Thirty-two mice were randomly divided into four groups (A to D). […] Tumour number on the surface of the lungs was assessed using a dissection microscope.

SW620^Gal3+ cells = assay: as above; format: in vivo, Balb/c nude mice; conditions: 10 mg/kg/day subcutaneously
Description: as §5
as §5, with “for 5” for “for 3”, “first” for “first week and then once every”, “Galectin-3-suppressed SW620^Gal3 cells.” for “Galectin-3-suppressed SW620^Gal3− cells;”
as §2, §6

Row | SMILES | HUVEC tubule formation, tubule numbers (HUVECs) | HUVEC tubule formation, vascular tubule length (HUVECs) | inhibition of tumour growth (SW620 cells) [%] | mutagenic activity [1] | mutagenic activity [2] | effect on lung metastasis (SW620^Gal3− cells) | lung metastasis in IVIS imaging (SW620^Gal3+ cells; 14 days after tumour cell inoculation) | reduction of lung metastasis (metastasis nodules on lung surface) (SW620^Gal3+ cells; five weeks after tumour cell inoculation) [%]
1 | C[C@H]1COc2c(N3CCN(C)CC3)c(F)cc3c(=O)c(C(=O)NNc4cccc(N)c4)cn1c23 [Formula II] | dose-dependently inhibition | dose-dependently inhibition |  |  |  |  |  | 
2 | C[C@H]1COc2c(N3CCN(C)CC3)c(F)cc3c(=O)c(C(=O)NNc4ccc(N)cc4)cn1c23 [Formula I] | dose-dependently inhibition | dose-dependently inhibition | 51 | no mutagenic activity | no mutagenic activity | little effect | Substantially lower | 88
